Experimental data taken from article PMC5321434, “Dihydrobenz[e][1,4]oxazepin-2(3H)-ones, a new anthelmintic chemotype immobilising whipworm and reducing infectivity in vivo” (PLoS Neglected Tropical Diseases, 2017).

Tested on: adult T. muris
Assay: Ex vivo adult T. muris automated motility assay (primary/secondary screen at 100 μM and dose-response)
Design: species or system Trichuris muris
Details: for PRIMARY_SCREEN_MINUS_LOG_FOLD_CHANGE_MOVEMENT: primary screen; for PRIMARY_SCREEN_MINUS_LOG_FOLD_CHANGE_MOVEMENT / SECONDARY_SCREEN_MINUS_LOG_FOLD_CHANGE_MOVEMENT: adult T. muris motility; for SECONDARY_SCREEN_MINUS_LOG_FOLD_CHANGE_MOVEMENT: secondary screen
Outline: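 Motility scored after 24 h (37 °C, 5% CO2) by automated imaging of pixel intensity variance, one worm per well, four weekly biological replicates. Worms came from SCID mice infected orally with 200 eggs, harvested day 35; screening at 100 μM final in RPMI-1640/antibiotics, 1% DMSO; curves fitted with four-parameter log-logistic model.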

[1] = combined primary and secondary screen minus log fold change in movement, adult T. muris, 100 μM
[2] = adult T. muris motility screen at 100 μM, combines primary and secondary screen minus log fold change in movement (mean where both are given)

| Structure (SMILES) | COMBINED_SCREEN_ACTIVITY [1] | PRIMARY_SCREEN_MINUS_LOG_FOLD_CHANGE_MOVEMENT (100 μM) | SECONDARY_SCREEN_MINUS_LOG_FOLD_CHANGE_MOVEMENT (100 μM) | COMBINED_SCREEN_ACTIVITY [2] |
| --- | --- | --- | --- | --- |
| O=C1COCc2ccc(-c3cccnc3)cc2N1CC1CCCCC1 [Compound 61] | 11.7341 | 10.8493 | 12.6188 |  |
| O=C1COCc2ccc(-c3cccc(F)c3)cc2N1CC1CC1 [Compound 35] | 10.5493 | 10.5493 |  |  |
| Cc1ccc(CN2C(=O)COCc3ccccc32)cc1 [Compound 7] | -0.007203 | -0.007203 |  |  |
| N#Cc1cccc(-c2ccc3c(c2)N(CC2CC2)C(=O)COC3)c1 [Compound 40] | -0.6738 | -0.6738 |  |  |
| O=C1COCc2ccc(-c3cc(F)cc(F)c3)cc2N1CCN1CCOCC1 [Compound 139] | -1.36 | -1.36 |  |  |
| CC(C)N1C(=O)COCc2ccc(-c3cc(F)cc(F)c3)cc21 [Compound 39] | 3.736 | 3.736 |  |  |
| O=C1COCc2ccc(-c3cc(F)cc(Cl)c3)cc2N1CCN1CCOCC1 [Compound 176] | -1.404 | -1.404 |  |  |
| O=C1COCc2ccc(-c3cccnc3)cc2N1Cc1ccc(C(F)(F)F)cc1 [Compound 159] | 11.6591 | 10.6993 | 12.6188 |  |
| O=C1COCc2cc(-c3cccnc3)ccc2N1Cc1cc(F)cc(F)c1 [Compound 109] | 7.462 | 7.462 |  |  |
| CCCN1C(=O)COCc2ccc(Br)cc21 [Compound 18] | -1.618 | -1.618 |  |  |
| CC(C)N1C(=O)COCc2cc(Br)ccc21 [Compound 17] | -0.6442 | -0.6442 |  |  |
| COCCN1C(=O)COCc2cc(Br)ccc21 [Compound 30] | 0.3958 | 0.3958 |  |  |
| COCCN1C(=O)COCc2ccc(-c3ccccc3)cc21 [Compound 28] | -0.7597 | -1.727 | 0.2076 |  |
| Cc1ccc(CN2C(=O)COCc3cc(-c4cccc(CO)c4)ccc32)cc1 [Compound 123] | -0.1619 | -0.1619 |  |  |
| CC(C)N1C(=O)COCc2ccc(-c3cnn(C)c3)cc21 [Compound 20] | 0.06851 | 0.06851 |  |  |
| O=C1COCc2ccc(-c3ccncc3)cc2N1Cc1ccccc1 [Compound 49] | -0.743 | -0.743 |  |  |
| COc1cccc(CN2C(=O)COCc3cc(-c4ccccc4OC)ccc32)c1 [Compound 141] | -1.328 | -1.328 |  |  |
| CN1C(=O)COCc2cc(-c3cccc(C#N)c3)ccc21 [Compound 10] | -1.704 | -1.704 |  |  |
| O=C1COCc2ccc(-c3ccc4ccccc4c3)cc2N1CCN1CCOCC1 [Compound 167] | 3.214 | 3.214 |  |  |
| CCCN1C(=O)COCc2cc(Br)ccc21 [Compound 16] | -2.129 | -2.129 |  |  |
| O=C1COCc2ccc(-c3ccccc3)cc2N1CCN1CCOCC1 [Compound 85] | 0.2067 | 0.2067 |  |  |
| Cc1ccc(CN2C(=O)COCc3cc(-c4cccc(O)c4)ccc32)cc1 [Compound 98] | -1.09 | -1.09 |  |  |
| COc1cc(F)ccc1-c1ccc2c(c1)COCC(=O)N2Cc1cc(F)cc(F)c1 [Compound 182] | -0.8244 | -0.8244 |  |  |
| COCc1cccc(-c2ccc3c(c2)COCC(=O)N3Cc2cccc(OC)c2)c1 [Compound 170] | -0.3892 | -0.3892 |  |  |
| COc1ccc(F)cc1-c1ccc2c(c1)N(CC1CC1)C(=O)COC2 [Compound 69] | 11.5841 | 10.5493 | 12.6188 |  |
| COc1cccc(CN2C(=O)COCc3cc(-c4cccc(O)c4)ccc32)c1 [Compound 126] | 1.18 | 1.18 |  |  |
| Cn1cc(-c2ccc3c(c2)COCC(=O)N3CC2CCCCC2)cn1 [Compound 67] | 7.315 | 2.012 | 12.6188 |  |
| COc1cc(F)ccc1-c1ccc2c(c1)COCC(=O)N2Cc1ccccc1 [Compound 128] | 3.2501 | 3.2501 |  |  |

| Structure (SMILES) | COMBINED_SCREEN_ACTIVITY [1] | PRIMARY_SCREEN_MINUS_LOG_FOLD_CHANGE_MOVEMENT (100 μM) | SECONDARY_SCREEN_MINUS_LOG_FOLD_CHANGE_MOVEMENT (100 μM) | COMBINED_SCREEN_ACTIVITY [2] |
| --- | --- | --- | --- | --- |
| O=C1COCc2ccc(Br)cc2N1CCc1ccccc1 [Compound 80] | 10.5493 | 10.5493 |  |  |
| COc1ccc(-c2ccc3c(c2)N(Cc2ccccc2)C(=O)COC3)cn1 [Compound 102] | 0.7062 | 0.7062 |  |  |
| CC(C)c1cccc(-c2ccc3c(c2)COCC(=O)N3Cc2ccc(C(=O)N(C)C)cc2)c1 [Compound 190] |  | 10.3993 | 11.6188 | 11.0091 |
| COc1cccc(CN2C(=O)COCc3ccc(-c4cccc(F)c4)cc32)c1 [Compound 131] | -0.1165 | -0.1165 |  |  |
| CCN(CC)C(=O)c1cccc(-c2ccc3c(c2)N(Cc2ccccc2C)C(=O)COC3)c1 [Compound 191] |  | 10.7743 | 11.0339 | 10.9041 |
| COc1cccc(CN2C(=O)COCc3cc(-c4ccc(OC)nc4)ccc32)c1 [Compound 143] | -1.1304 | -1.1304 |  |  |
| Cn1cc(-c2ccc3c(c2)N(Cc2ccc(C(F)(F)F)cc2)C(=O)COC3)cn1 [Compound 166] | 11.5841 | 10.5493 | 12.6188 |  |
| O=C1COCc2ccc(-c3cccc(O)c3)cc2N1Cc1ccccc1Cl [Compound 133] | -0.006244 | -0.006244 |  |  |
| COc1ccccc1-c1ccc2c(c1)COCC(=O)N2Cc1ccccc1Cl [Compound 150] | -1.328 | -1.328 |  |  |
| Cc1ccc(-c2ccc3c(c2)COCC(=O)N3Cc2ccc(C(=O)N(C)C)cc2)cc1C [Compound 186] |  | 10.5493 |  | 10.5493 |
| Cn1cc(-c2ccc3c(c2)COCC(=O)N3Cc2ccc(C(F)(F)F)cc2)cn1 [Compound 165] | 10.5493 | 10.5493 |  |  |
| O=C1COCc2cc(-c3cccnc3)ccc2N1Cc1ccccc1 [Compound 51] | -0.6528 | -0.6528 |  |  |
| O=C1COCc2ccc(-c3ccncc3)cc2N1CC1CCCCC1 [Compound 60] | 7.742 | 7.742 |  |  |
| COc1cccc(CN2C(=O)COCc3cc(-c4cccc(CO)c4)ccc32)c1 [Compound 142] | -0.6408 | -0.6408 |  |  |
| N#Cc1cccc(-c2ccc3c(c2)N(Cc2ccccc2)C(=O)COC3)c1 [Compound 89] | 0.3109 | 0.3109 |  |  |
| O=C(O)c1cccc(-c2ccc3c(c2)N(Cc2ccccc2)C(=O)COC3)c1 [Compound 117] | -1.457 | -1.457 |  |  |
| COc1ccc(-c2ccc3c(c2)N(Cc2ccccc2Cl)C(=O)COC3)cn1 [Compound 153] | 0.2455 | 0.2455 |  |  |
| COc1cccc(CN2C(=O)COCc3ccc(-c4ccc5c(c4)OCO5)cc32)c1 [Compound 169] | 0.1266 | 0.1266 |  |  |
| CC(C)N1C(=O)COCc2ccc(-c3cccc(F)c3)cc21 [Compound 29] | 1.463 | 1.463 |  |  |
| O=C1COCc2ccc(-c3cccnc3)cc2N1Cc1cc(F)cc(F)c1 [Compound 110] | -0.9208 | -0.9208 |  |  |
| COc1ccc(CN2C(=O)COCc3ccccc32)cc1 [Compound 14] | -1.77 | -1.77 |  |  |
| COc1cc(F)ccc1-c1ccc2c(c1)COCC(=O)N2CCc1ccccc1 [Compound 144] | -1.769 | -1.769 |  |  |
| COc1ccccc1-c1ccc2c(c1)COCC(=O)N2Cc1ccccc1 [Compound 95] | -1.179 | -1.179 |  |  |
| O=C1COCc2ccc(-c3cccc(C(F)(F)F)c3)cc2N1CCN1CCOCC1 [Compound 184] | -1.964 | -1.964 |  |  |
| COc1cc(F)ccc1-c1ccc2c(c1)N(CC1CC1)C(=O)COC2 [Compound 70] | 11.6216 | 10.6243 | 12.6188 |  |
| N#Cc1cccc(-c2ccc3c(c2)COCC(=O)N3Cc2ccccc2)c1 [Compound 90] | -1.512 | -1.512 |  |  |
| COc1cc(F)ccc1-c1cccc2c1COCC(=O)N2C [Compound 32] | -1.894 | -1.894 |  |  |
